Measurements reported in patent publication EP0326640B1, “(1R,5S,6S)-2-substituted thio-6 (R)-1-hydroxyethyl -1-methyl-carbapenem - carboxylic acid derivatives” (LEDERLE (JAPAN) LTD., priority 1987, dated 1989).
Converted amounts (≈) assume the structure as drawn. Read-outs that look alike come from different tables or passages of the source.

Columns and labels:
[1] = test system: Citrobactor freundii GN 346; assay: Antibacterial activity against clinically isolated β-lactamase (cephalosporinase) producing strains (MIC); assay type: cell-based; settings: cephalosporinase producing strain, SDA, 18 to 20 hours
Method: (§1) The antibacterial activities against clinically isolated β-lactamase producing strains were tested by the agar plate dilution method in accordance with the standard method of The Japanese Chemotherapy Society [Chemotherapy, Vol. 29, 76-79 (1981)]. A solution of a cephalosporinase producing strain stored by Episome Research Institute, prepared by incubating the strain in a sensitivity test broth (STB; product of Nissui K. K.) for 18 hours, was diluted with a fresh STB solution so that the solution contained 10⁶ cells per milliliter. The diluted solution was then inoculated as spots in a microplanter on a sensitivity disk agar-N (SDA; product of Nissui K. K.) containing a test compound. The disk agar was then incubated for 18 to 20 hours. The minimum inhibitory concentration was determined as a minimum concentration in which the test microorganism no longer grew after a 18 to 20-hour incubation.

[2] = test system: Citrobactor freundii GN 7391; assay: as above; assay type: cell-based; settings: cephalosporinase producing strain, SDA, 18 to 20 hours
Method: as §1

Escherichia coli GN 5482 = assay: as above; assay type: cell-based; settings: GN5482, cephalosporinase producing strain, SDA, 18 to 20 hours, read-out: MIC
Method: as §1

[3] = test system: Escherichia coli No. 1501; assay: as above; assay type: cell-based; settings: cephalosporinase producing strain, SDA, 18 to 20 hours, read-out: MIC
Method: as §1

Escherichia coli No. 96 = assay: as above; assay type: cell-based; settings: cephalosporinase producing strain, SDA, 18 to 20 hours, read-out: MIC
Method: as §1

[4] = test system: Klebsiella oxytoca GN 10650; assay: as above; assay type: cell-based; settings: Klebsiella oxytoca, GN10650, Klebsiella oxytoca GN 10650; cephalosporinase producing strain, SDA, 18 to 20 hours; read-out: MIC
Method: as §1

Proteus vulgaris GN 4413 = assay: as above; assay type: cell-based; settings: Proteus vulgaris
Method: as §1

Proteus vulgaris GN 76 = assay: as above; assay type: cell-based; settings: Proteus vulgaris, GN76, Proteus vulgaris GN 76; cephalosporinase producing strain, SDA, 18 to 20 hours; read-out: MIC
Method: as §1

[5] = test system: Providencia rettgeri GN 4762; assay: as above; assay type: cell-based; settings: Providencia rettgeri, GN4762, Providencia rettgeri GN 4762; cephalosporinase producing strain, SDA, 18 to 20 hours; read-out: MIC
Method: as §1

[6] = test system: Pseudomonas aeruginosa GN 10367; assay: as above; assay type: cell-based; settings: Pseudomonas aeruginosa, GN10367, Pseudomonas aeruginosa GN 10367; cephalosporinase producing strain, SDA, 18 to 20 hours
Method: as §1

Serratia marcescens L-65 = assay: as above; assay type: cell-based; settings: Serratia marcescens, L65, Serratia marcescens L-65; cephalosporinase producing strain, SDA, 18 to 20 hours; read-out: MIC
Method: as §1

[7] = test system: P. aeruginosa resistant strains; assay: Sensitivity test against clinical isolates, agar plate dilution method; assay type: cell-based; settings: 54 strains of P. aeruginosa having an anti-Pseudomonas resistance
Method: The test procedures were based on the agar plate dilution method in accordance with the standard method of The Japanese Chemotherapy Society. The minimum inhibitory concentration (MIC) was determined in substantially the same manner as the test procedures II above using the 54 strains of P. aeruginosa having an anti-Pseudomonas resistance.

[8] = target: T1, Swine Kidney Dehydropeptidase-I (DHP-I) (Sus scrofa, UniProt P22412); assay: Stability of test compounds against DHP-I by HPLC; assay type: in vitro ADME; settings: 37°C, Substrate Concentration: 100 μM
T1 construct: made soluble by treatment with butanol and purified by the ammonium sulfate fraction method, thereby producing DHP-I enzyme from a 75% ammonium sulfate fraction; from tissue; host or cells: swine kidney
T1 sequence (P22412 17-384): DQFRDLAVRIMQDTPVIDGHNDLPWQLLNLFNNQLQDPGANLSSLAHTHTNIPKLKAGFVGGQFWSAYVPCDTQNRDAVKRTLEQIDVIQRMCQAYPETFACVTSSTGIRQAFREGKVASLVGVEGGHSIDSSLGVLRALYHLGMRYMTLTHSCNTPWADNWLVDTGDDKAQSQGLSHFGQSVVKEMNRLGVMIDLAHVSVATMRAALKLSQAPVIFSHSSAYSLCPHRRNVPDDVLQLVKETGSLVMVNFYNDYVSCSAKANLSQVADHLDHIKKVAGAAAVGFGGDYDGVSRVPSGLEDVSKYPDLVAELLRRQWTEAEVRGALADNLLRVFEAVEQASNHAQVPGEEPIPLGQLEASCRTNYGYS
Method: The swine kidney (8 kg) was homogenized and the enzyme protein was allowed to precipitate. After a connective lipid was removed with acetone, the resultant material was made soluble by treatment with butanol and purified by the ammonium sulfate fraction method, thereby producing DHP-I enzyme from a 75% ammonium sulfate fraction. The DHP-I enzyme was then adjusted to give an enzyme concentration of 25 mg/10 ml (phosphate buffer, pH 7.1), and divided into 1 ml portions. The portions were frozen and stored at -40°C or less until use. Crystalline compound (20) obtained in Example 11 and amorphous compound (14) obtained in Example 5 below were used as a test compound. The test compound was adjusted in situ to give a concentration of 117 µM with a 50 mM sodium phosphate buffer solution (pH =7.1). Glycyl dehydrophenylalanine (Gl-dh-Ph) and imipenem were employed as control compounds, and they were adjusted in situ each to give a concentration of 117 µM with the same sodium phosphate buffer solution. The test compound according to the present invention and the control compounds were treated in substantially the same manner as (1) above. The incubation, however, was conducted at 37°C for 4.5 hours or for 24 hours. The degree of hydrolysis of the compounds each after the test periods was measured by the HPLC method.

Structure (SMILES)	MIC [1]	MIC [2]	MIC (Escherichia coli GN 5482)	MIC [3]	MIC (Escherichia coli No. 96)	MIC [4]	MIC (Proteus vulgaris GN 4413; GN4413)	MIC (Proteus vulgaris GN 76)	MIC [5]	MIC [6]	MIC (Serratia marcescens L-65)	concentration to inhibit the growth of all the test microorganisms [7]	percent of strains inhibited at 6.25 µg/mL ([7]; concentration of 6.25 µg/ml, read-out: test microorganisms whose growth is inhibited)	DEGREES OF HYDROLYSIS BY DHP-I ([8]; 4.5 hours)	DEGREES OF HYDROLYSIS BY DHP-I ([8]; 24 hours)	MIC (Proteus vulgaris GN 4413; GN4413, Proteus vulgaris GN 4413, cephalosporinase producing strain, SDA, 18 to 20 hours, read-out: MIC)
C[C@@H](O)[C@H]1C(=O)N2C(C(=O)O)=C(SCCN=CN)C[C@H]12 [Imipenem, imipenem]	0.39 µg/mL (≈ 1.3 µM)	0.78 µg/mL (≈ 2.61 µM)	0.1 µg/mL (≈ 0.334 µM)	0.1 µg/mL (≈ 0.334 µM)	0.1 µg/mL (≈ 0.334 µM)	0.2 µg/mL (≈ 0.668 µM)	6.25 µg/mL (≈ 20.9 µM)	3.13 µg/mL (≈ 10.5 µM)	0.39 µg/mL (≈ 1.3 µM)	1.56 µg/mL (≈ 5.21 µM)	0.39 µg/mL (≈ 1.3 µM)	12.5 µg/mL	~98%	77.6 µM	* After 24 hours at 37°C, it has been found that most or all imipenem has been decomposed and nothing remained was detected.	–
C[C@@H](O)[C@H]1C(=O)N2C(C(=O)[O-])=C(SCc3cs[n+](C)n3)[C@H](C)[C@H]12 [Amorphous Compd. (14), (1R,5S,6S)-2-[(2-methyl-1,2,3-thiadiazolium-4-yl)methyl]thio-6-[(R)-1-hydroxyethyl]-1-methyl-carbapenem-3-carboxylate]	0.78 µg/mL (≈ 2.19 µM)	1.56 µg/mL (≈ 4.39 µM)	0.05 µg/mL (≈ 0.141 µM)	0.05 µg/mL (≈ 0.141 µM)	0.05 µg/mL (≈ 0.141 µM)	0.39 µg/mL (≈ 1.1 µM)	–	6.25 µg/mL (≈ 17.6 µM)	0.39 µg/mL (≈ 1.1 µM)	1.56 µg/mL (≈ 4.39 µM)	0.78 µg/mL (≈ 2.19 µM)	–	–	–	–	6.25 µg/mL (≈ 17.6 µM)
